Patent US5158939A, “Method of stimulating the immune systems of animals and compositions useful therefor” (priority 1990, dated 1992)
“Also recorded” adds a separate entry of the source.

Key:
serum TNF = assay: Serum TNF rise after E. coli LPS in mice; format: in vivo; conditions: RsDPLA 100 μg and 1 mg, 60 and 90 min before E. coli LPS 1 μg and 5 μg i.p.
chick embryo = assay: Chick embryo lethality test; format: in vivo
Experimental: It was characterized as the tetramethyl derivative by plasma desorption mass spectrometry. It is nontoxic based on the chick embryo lethality test (CELD50 >20 μg), and its structure is shown in Formula II.

[1] = test system: RAW 264.7 murine macrophage cells; conditions: as reported; cited from earlier work
[2] = test system: RAW 264.7 murine macrophage cells; assay: Cachectin/TNF production by RAW 264.7 cells, immunoblot; format: cell-based
Experimental: For the […] to activate the RAW 264.7 murine macrophage cell line, we chose the toxic deep rough chemotype LPS (ReLPS) from Escherichia coli D31m4, which was recently purified and characterized^15. […] This is a clear example of a lipid A derivative showing strong antagonism against a toxic agonist in the induction of cachectin.
The immunoblot method was used to quantitate the cachectin/TNF production by RAW 264.7 murine macrophage cells. RAW 264.7 cells^4,16 were seeded in 24-well plates (Nunc) at a density of 3×10^5 cells/well in Dulbecco's modified Eagle's medium supplemented with 5 percent fetal calf serum. After 12 hours, cell monolayers were washed twice with 1 ml of serum-free medium and then left covered with […] of the same. An aqueous suspension of DPLA and/or ReLPS was then added to a final concentration indicated. Cells were incubated for 12 hours, after which the medium was removed for measurement of TNF by immunoblotting. One hundred μl of medium was mixed with 100 μl of SDS-containing sample buffer, heated to 100° C. for 5 minutes, and subjected to electrophoresis in a 10-15% polyacrylamide gradient gel. Proteins were then transferred to nitrocellulose electrophoretically, and TNF was visualized through the use of a rabbit anti-mouse TNF polyclonal serum^3,5 applied at a 1:100 dilution, followed by alkaline phosphatase-conjugated goat anti-rabbit IgG (Bio-Rad).
Bands were visualized using nitroblue tetrazolium. Approximately 0.1 ng of cachectin/TNF may be detected as a band. The antiserum also recognized the processing intermediates (prohormones) on Western blot.

mice = assay: LD50 in galactosamine-sensitized mice; format: in vivo
Experimental: Although the diphospholipids from E. coli and Salmonella strains are highly toxic, DPLA having the structure of the diphosphoryllipid A from R. sphaeroides is not. The LD50 of DPLA in galactosamine--sensitized mice was greater than 20 mg/kg.

[3] = Toxicity / endotoxic activity (general statements); conditions: in words
peritoneal macrophages = assay: Induction of IL-1 in thioglycollate-elicited peritoneal macrophages (comitogenic thymocyte assay); format: cell-based, BDF1 mice; conditions: for IL-1 induction, CPM: SD in parentheses; for induction of IL-1 release: DPLA alone 0.1, 1.0, 10 μg/ml
Experimental: 1L-1 assay--Peritoneal exudate cells were harvested from BDF1 mice 48 h after an intraperitoneal injection of thioglycollate. […] Macrophages were either pretreated with R. sphaeroides DPLA (0.1-10 μg/ml) followed by the addition of toxic Re LPS (0.1 μg) after 2 h, or immediately stimulated with Re LPS (0.01-1.00 μg/ml). Control wells were treated with 10 μl of media containing 0.5% triethylamine. Cultures were incubated at 37° C. in the presence of 5% CO2 for 18 h at which time the supernatants were collected and frozen at -20° C. until assayed. 1L-1 activity was determined by the comitogenic thymocyte assay.^25
Peritoneal exudate cells were harvested from BDF1 mice 48 h after an intraperitoneal injection of thioglycollate as described previously (Lederer and Czuprynki). Macrophages were either pretreated with R. sphaeroides DPLA (0.1-10 μg/ml) followed by addition of toxic ReLPS (0.1 μg), or immediately stimulated with ReLPS (0.01-1.00 μg/ml). Control wells were treated with 10 μl of media with 0.5% triethylamine. Cultures were incubated at 37° C. in the presence of 5% CO2 for 18 h at which time the supernatants were collected and frozen at -20° C. until assayed.
ReLPS was added to the culture 2 h after adding the R. sphaeroides DPLA. […] Standard deviation in CPM are given in parentheses.

RAW 264.7 cells = assay: TNF production by RAW 264.7 cells, dilution for 50% killing of indicator cell line L929; format: cell-based, murine; conditions: for Dilution to get 50% killing: Table 1
Experimental: The TNF unit is derived by determining how far one can dilute the supernatant of the culture to achieve 50% killing of an indicator cell line.
TNF unit was derived by determining dilution of culture supernatant that kills 50 percent of the indicator cell line.
DPLA was added 2 hours before exposing culture to ReLPS. The ReLPS and DPLA were complexed with bovine serum albumin.^1

SMILES: CCCCCCC=CCCCCCC(=O)OC(CCCCCCCCCCC)CC(=O)NC1C(OCC2OC(OP(=O)(O)O)C(NC(=O)CC(=O)CCCCCCCCCCC)C(OC(=O)CC(O)CCCCCCC)C2O)OC(CO)C(OP(=O)(O)O)C1OC(=O)CC(O)CCCCCCC (stereo not drawn) [DPLA]
- rise in serum TNF (serum TNF): blocked a rise in serum TNF
- CELD50 (chick embryo): > 20 µg
- blocking of LPS-induced TNF [1]: competes successfully with toxic LPS to block the induction of TNF in a dose-dependent manner
- induction of TNF [1]: fails to induce the synthesis and release of TNF by macrophages
- induction of cachectin (immunoblot) ([2]; DPLA 1-1000 ng/ml): not able to induce the formation of cachectin
- inhibition of ReLPS-induced cachectin (immunoblot) ([2]; DPLA 10^3 ng/ml + ReLPS 10 ng/ml (ReLPS:DPLA 1:100)): definite inhibition
- induction of cachectin (immunoblot) ([2]; DPLA 10^4 ng/ml): only slight induction
- blocking of ReLPS-induced cachectin/TNF (immunoblot) ([2]; in words): blocks the induction of cachectin; also recorded: blocking of induction
- DPLA concentration at which inhibition was probably maximal ([2]; with ReLPS 10 ng/ml): < 10^4 ng/ml
- LD50 (mice): greater than 20 mg/kg
- endotoxic activity [3]: nontoxic
- endotoxic activity ([3]; listed as R. sphaeroides DPLA): not endotoxic
- endotoxic activity ([3]; listed as pentaacyl DPLA): lacks endotoxic activity; also recorded: no endotoxic activity
- IL-1 induction, CPM (peritoneal macrophages; DPLA 0.1 μg/ml 2 h before ReLPS 0.1 μg/ml): 51,999 (4860) CPM
- IL-1 induction, CPM - Blank (peritoneal macrophages; DPLA 0.1 μg/ml + ReLPS 0.1 μg/ml): 44,211 CPM
- IL-1 induction, CPM (peritoneal macrophages; DPLA 1.0 μg/ml 2 h before ReLPS 0.1 μg/ml): 28,276 (4860) CPM
- IL-1 induction, CPM - Blank (peritoneal macrophages; DPLA 1.0 μg/ml + ReLPS 0.1 μg/ml): 20,491 CPM
- IL-1 induction, CPM (peritoneal macrophages; DPLA 10.0 μg/ml 2 h before ReLPS 0.1 μg/ml): 5,892 (886) CPM
- IL-1 induction, CPM - Blank (peritoneal macrophages; DPLA 10.0 μg/ml + ReLPS 0.1 μg/ml): 0 CPM
- % Inhibition of IL-1 induction by ReLPS (peritoneal macrophages; DPLA 10.0 μg/ml, ReLPS 0.1 μg/ml (1:100)): total
- IL-1 induction, CPM - Blank (peritoneal macrophages; DPLA alone 0.1 μg/ml): 0 CPM
- IL-1 induction, CPM (peritoneal macrophages; DPLA alone 0.1 μg/ml): 3,511 (616) CPM
- IL-1 induction, CPM - Blank (peritoneal macrophages; DPLA alone 1.0 μg/ml): 0 CPM
- IL-1 induction, CPM (peritoneal macrophages; DPLA alone 1.0 μg/ml): 2,911 (383) CPM
- IL-1 induction, CPM - Blank (peritoneal macrophages; DPLA alone 10.0 μg/ml): 0 CPM
- IL-1 induction, CPM (peritoneal macrophages; DPLA alone 10.0 μg/ml): 3,764 (785) CPM
- induction of IL-1 release (peritoneal macrophages; in words): unable to induce interleukin-1 release; also recorded: no IL-1/releasing activity
- induction of IL-1 release (peritoneal macrophages; in words, listed as pentaacyl DPLA): unable to induce 1L-1
- blocking of ReLPS-induced IL-1 release (peritoneal macrophages; in words): blocked this activity by toxic deep rough chemotype LPS; also recorded: antogonize the induction of IL-1 release by toxic Re LPS; also recorded: blocked the release of IL-1
- induction of TNF (RAW 264.7 cells; DPLA alone 10^4 ng/ml): measurable but low level in the induction of TNF
- inhibition at 0.01 µg/mL (RAW 264.7 cells; Mus musculus, RAW264.7, Table 3, DPLA 10 ng/ml, ReLPS 1.0 ng/ml (ReLPS:DPLA 1:10), read-out: Inhibition of induction of TNF by ReLPS): 55%
- inhibition at 0.1 µg/mL (RAW 264.7 cells; Mus musculus, RAW264.7, Table 3, DPLA 100 ng/ml, ReLPS 1.0 ng/ml (1:100), read-out: Inhibition of induction of TNF by ReLPS): 95%
- inhibition at 10 µg/mL (RAW 264.7 cells; Mus musculus, RAW264.7, Table 3, DPLA 10000 ng/ml, ReLPS 1.0 ng/ml (1:10^4), read-out: Inhibition of induction of TNF by ReLPS): 81%
- induction of TNF (RAW 264.7 cells; RAW 264.7 cells, indicator cell line L929): not effective in the induction of TNF; also recorded: lack of induction
- blocking of TNF induction by ReLPS (RAW 264.7 cells; RAW 264.7 cells, in words): effectively antagonize the induction of TNF by toxic ReLPS in a dose-dependent manner; also recorded: block the induction of cachectin (TNF); also recorded: blocking of induction
- Dilution to get 50% killing (RAW 264.7 cells; DPLA 10 ng/ml 2 h before ReLPS 1.0 ng/ml): 829
- Dilution to get 50% killing (RAW 264.7 cells; DPLA 100 ng/ml 2 h before ReLPS 1.0 ng/ml): 112
- Dilution to get 50% killing (RAW 264.7 cells; DPLA 1000 ng/ml 2 h before ReLPS 1.0 ng/ml): 86
- Dilution to get 50% killing (RAW 264.7 cells; DPLA 10,000 ng/ml 2 h before ReLPS 1.0 ng/ml): 234
